For 12 molecules, IC50 and Ratio IC50 results are on record in ChEMBL document CHEMBL1770057, “Synthesis and antibacterial activity of alaremycin derivatives for the porphobilinogen synthase” (Bioorg Med Chem Lett, 2011).

A short description of test [1]: Inhibition of Pseudomonas fluorescens porphobilinogen synthase by PBGS assay.
In a further test the test system is Pseudomonas fluorescens. As to the kind of experiment: Ratio of IC50 of Alaremycin to IC50 of compound for Pseudomonas fluorescens porphobilinogen synthase.

Regarding `O=C(O)CCC(=O)CNC(=O)CCC(F)(F)F`, the IC50 in test [1] amounted to 1300 µM. That is a millimolar value.

Molecule `CC(=O)N[C@@H](C)C(=O)CCC(=O)O` yielded an IC50 in test [1] of 1100 µM.

`O=C(O)CCC(=O)CNC(=O)C(F)(F)F`: inhibition in test [1] was half-maximal at 8000 µM (IC50).

With `C=C(NC(=O)C(F)(F)F)C(=O)CCC(=O)O`, the IC50 in test [1] was 22 µM. In the test with Pseudomonas fluorescens, the Ratio IC50 stood at 100.

In turn, `O=C(O)CCC(=O)CNC(=O)CC(F)(F)F` yielded a half-maximal inhibitory concentration (IC50) in test [1] of 500 µM.

Consider `CC(=O)NCC(=O)CCC(=O)O`, for which, in test [1], the IC50 was found to be 2500 µM.

Molecule `CC(=O)N[C@H](C)C(=O)CCC(=O)O` [ALAREMYCIN 2] yielded an IC50 in test [1] of 700 µM.

`C[C@H](NC(=O)C(F)(F)F)C(=O)CCC(=O)O` gave an IC50 in test [1] of 3000 µM. Against the preceding molecule, the IC50 is about 4.3-fold higher.

In the case of `C[C@@H](NC(=O)C(F)(F)F)C(=O)CCC(=O)O`, the IC50 in test [1] amounted to 4100 µM.

For the molecule `C=C(NC(=O)CCC(F)(F)F)C(=O)CCC(=O)O`, in test [1], 51 µM corresponded to half-maximal inhibition (IC50). Besides, the Ratio IC50 in the test on Pseudomonas fluorescens amounted to 50.

Regarding `C=C(NC(=O)CC(F)(F)F)C(=O)CCC(=O)O`, the IC50 in test [1] was determined as 900 µM.

In the case of `C=C(NC(C)=O)C(=O)CCC(=O)O` [ALAREMYCIN], in test [1], the IC50 stood at 2600 µM. Compared with the last molecule, the IC50 is about 2.9-fold higher.
